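Interpolation was linear, between the two tested concentrations surrounding the appropriate level; five concentrations were tested over 48 hours in 96-well plates. GI50 is the concentration that inhibits growth by half. Definition used: TGI = concentration required for complete inhibition of growth.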
Assays:
Test in all cases: NCI tumour cell line growth inhibition, 48 h
786-0 renal = system: 786-0 renal
A498 renal = system: A498 renal
A549 NSCLC = system: A549 NSCLC
ACHN renal = system: ACHN renal
BT-549 breast = system: BT-549 breast
CAKI-1 renal = system: CAKI-1 renal
CCRF-CEM leukemia = system: CCRF-CEM leukemia
COLO 205 colon = system: COLO 205 colon
DU-145 prostate = system: DU-145 prostate
EKVX NSCLC = system: EKVX NSCLC
HCC-2998 colon = system: HCC-2998 colon
HCT-116 colon = system: HCT-116 colon
HCT-15 colon = system: HCT-15 colon
HL-60(TB) leukemia = system: HL-60(TB) leukemia
HOP-62 NSCLC = system: HOP-62 NSCLC
HOP-92 NSCLC = system: HOP-92 NSCLC
HS 578T breast = system: HS 578T breast
HT29 colon = system: HT29 colon
K-562 leukemia = system: K-562 leukemia
KM12 colon = system: KM12 colon
LOX IMVI melanoma = system: LOX IMVI melanoma
M14 melanoma = system: M14 melanoma
MALME-3M melanoma = system: MALME-3M melanoma
MCF7 breast = system: MCF7 breast
MDA-MB-231 breast = system: MDA-MB-231 breast
MDA-MB-435 = system: MDA-MB-435
MOLT-4 leukemia = system: MOLT-4 leukemia
NCI-H226 lung = system: NCI-H226 lung
NCI-H23 lung = system: NCI-H23 lung
NCI-H522 lung = system: NCI-H522 lung
NCI/ADR-RES ovarian = system: NCI/ADR-RES ovarian
OVCAR-3 ovarian = system: OVCAR-3 ovarian
OVCAR-4 ovarian = system: OVCAR-4 ovarian
OVCAR-5 ovarian = system: OVCAR-5 ovarian
OVCAR-8 ovarian = system: OVCAR-8 ovarian
PC-3 prostate = system: PC-3 prostate
RPMI-8226 leukemia = system: RPMI-8226 leukemia
RXF 393 renal = system: RXF 393 renal
SF-268 CNS = system: SF-268 CNS
SF-539 CNS = system: SF-539 CNS
SK-MEL-2 melanoma = system: SK-MEL-2 melanoma
SK-MEL-28 melanoma = system: SK-MEL-28 melanoma
SK-MEL-5 melanoma = system: SK-MEL-5 melanoma
SK-OV-3 ovarian = system: SK-OV-3 ovarian
SN12C renal = system: SN12C renal
SNB-19 CNS = system: SNB-19 CNS
SNB-75 CNS = system: SNB-75 CNS
SR leukemia = system: SR leukemia
SW-620 colon = system: SW-620 colon
T-47D breast = system: T-47D breast
TK-10 renal = system: TK-10 renal
U251 CNS = system: U251 CNS
UACC-257 melanoma = system: UACC-257 melanoma
UACC-62 melanoma = system: UACC-62 melanoma
UO-31 renal = system: UO-31 renal

Q: For COc1cc2cn3c4ccc(O)cc4[nH]c(=O)c3c2cc1OC, which GI50 (786-0 renal) is on record?
A: Its GI50 is 0.0715 µM.

Q: What about the TGI (786-0 renal) of the same molecule?
A: Its TGI is 2.02 µM.

Q: What about the GI50 (A498 renal) of the same molecule?
A: The GI50 was 0.02 µM.

Q: And the TGI (A498 renal)?
A: The TGI was 10.8 µM.

Q: What about the GI50 (A549 NSCLC) of the same molecule?
A: Its GI50 is 0.042 µM.

Q: What about the TGI (A549 NSCLC) of the same molecule?
A: The TGI was 1.3 µM.

Q: And the GI50 (ACHN renal)?
A: The GI50 was 0.0361 µM.

Q: And the TGI (ACHN renal)?
A: The TGI was 1.61 µM.

Q: What about the GI50 (BT-549 breast) of the same molecule?
A: The GI50 was 0.435 µM.

Q: What about the TGI (BT-549 breast) of the same molecule?
A: Its TGI is 2.26 µM.

Q: And the GI50 (CAKI-1 renal)?
A: Its GI50 is 0.0158 µM.

Q: And the TGI (CAKI-1 renal)?
A: The TGI was 1.3 µM.

Q: And the GI50 (CCRF-CEM leukemia)?
A: The GI50 was 0.0224 µM.

Q: And the GI50 (COLO 205 colon)?
A: Its GI50 is 0.0201 µM.

Q: And the TGI (COLO 205 colon)?
A: Its TGI is 0.429 µM.

Q: And the GI50 (DU-145 prostate)?
A: Its GI50 is 0.0229 µM.

Q: And the TGI (DU-145 prostate)?
A: The TGI was 1.25 µM.

Q: And the GI50 (EKVX NSCLC)?
A: The GI50 was 0.0607 µM.

Q: And the TGI (EKVX NSCLC)?
A: Its TGI is 2 µM.

Q: What about the GI50 (HCC-2998 colon) of the same molecule?
A: Its GI50 is 0.0307 µM.

Q: And the TGI (HCC-2998 colon)?
A: The TGI was 1.61 µM.

Q: And the GI50 (HCT-116 colon)?
A: The GI50 was under 0.01 µM.

Q: And the TGI (HCT-116 colon)?
A: Its TGI is 1.66 µM.

Q: And the GI50 (HCT-15 colon)?
A: Its GI50 is 0.0207 µM.

Q: What about the TGI (HCT-15 colon) of the same molecule?
A: Its TGI is 1.35 µM.

Q: What about the GI50 (HL-60(TB) leukemia) of the same molecule?
A: The GI50 was 0.0264 µM.

Q: And the TGI (HL-60(TB) leukemia)?
A: Its TGI is 2.3 µM.

Q: What about the GI50 (HOP-62 NSCLC) of the same molecule?
A: Its GI50 is 0.0338 µM.

Q: And the TGI (HOP-62 NSCLC)?
A: Its TGI is 1.81 µM.

Q: What about the GI50 (HOP-92 NSCLC) of the same molecule?
A: Its GI50 is 2.14 µM.

Q: What about the TGI (HOP-92 NSCLC) of the same molecule?
A: The TGI was 7.72 µM.

Q: What about the GI50 (HS 578T breast) of the same molecule?
A: The GI50 was 0.0702 µM.

Q: And the TGI (HS 578T breast)?
A: Its TGI is over 100 µM.

Q: What about the GI50 (HT29 colon) of the same molecule?
A: The GI50 was 0.025 µM.

Q: And the TGI (HT29 colon)?
A: The TGI was 0.469 µM.

Q: What about the GI50 (K-562 leukemia) of the same molecule?
A: The GI50 was under 0.0117 µM.

Q: And the TGI (K-562 leukemia)?
A: Its TGI is 1.68 µM.

Q: And the GI50 (KM12 colon)?
A: The GI50 was 0.0451 µM.

Q: What about the TGI (KM12 colon) of the same molecule?
A: The TGI was 1.48 µM.

Q: And the GI50 (LOX IMVI melanoma)?
A: Its GI50 is 0.0131 µM.

Q: And the TGI (LOX IMVI melanoma)?
A: Its TGI is 1.44 µM.

Q: What about the GI50 (M14 melanoma) of the same molecule?
A: The GI50 was 0.0206 µM.

Q: And the TGI (M14 melanoma)?
A: Its TGI is 1.64 µM.

Q: And the GI50 (MALME-3M melanoma)?
A: The GI50 was 0.0349 µM.

Q: And the TGI (MALME-3M melanoma)?
A: The TGI was 2.06 µM.

Q: What about the GI50 (MCF7 breast) of the same molecule?
A: Its GI50 is 0.0341 µM.

Q: And the TGI (MCF7 breast)?
A: Its TGI is 1.62 µM.

Q: And the GI50 (MDA-MB-231 breast)?
A: The GI50 was 0.0516 µM.

Q: And the TGI (MDA-MB-231 breast)?
A: The TGI was 1.79 µM.

Q: And the GI50 (MDA-MB-435)?
A: The GI50 was under 0.01 µM.

Q: What about the TGI (MDA-MB-435) of the same molecule?
A: The TGI was 0.0192 µM.

Q: And the GI50 (MOLT-4 leukemia)?
A: The GI50 was 0.0439 µM.

Q: And the TGI (MOLT-4 leukemia)?
A: Its TGI is 2.01 µM.

Q: And the GI50 (NCI-H226 lung)?
A: Its GI50 is 0.0374 µM.

Q: And the TGI (NCI-H226 lung)?
A: The TGI was 16.8 µM.

Q: And the GI50 (NCI-H23 lung)?
A: Its GI50 is 0.0716 µM.

Q: And the TGI (NCI-H23 lung)?
A: The TGI was 1.9 µM.

Q: And the GI50 (NCI-H522 lung)?
A: Its GI50 is under 0.01 µM.

Q: What about the TGI (NCI-H522 lung) of the same molecule?
A: The TGI was 0.0263 µM.

Q: What about the GI50 (NCI/ADR-RES ovarian) of the same molecule?
A: Its GI50 is 0.0883 µM.

Q: What about the TGI (NCI/ADR-RES ovarian) of the same molecule?
A: Its TGI is 2.01 µM.

Q: What about the GI50 (OVCAR-3 ovarian) of the same molecule?
A: Its GI50 is under 0.01 µM.

Q: And the TGI (OVCAR-3 ovarian)?
A: Its TGI is 0.214 µM.

Q: And the GI50 (OVCAR-4 ovarian)?
A: Its GI50 is 0.0594 µM.

Q: What about the TGI (OVCAR-4 ovarian) of the same molecule?
A: The TGI was 2.11 µM.

Q: What about the GI50 (OVCAR-5 ovarian) of the same molecule?
A: The GI50 was 0.269 µM.

Q: What about the TGI (OVCAR-5 ovarian) of the same molecule?
A: The TGI was 2.36 µM.

Q: And the GI50 (OVCAR-8 ovarian)?
A: Its GI50 is 0.0319 µM.

Q: And the TGI (OVCAR-8 ovarian)?
A: Its TGI is 1.53 µM.

Q: What about the GI50 (PC-3 prostate) of the same molecule?
A: The GI50 was 0.0461 µM.

Q: And the TGI (PC-3 prostate)?
A: The TGI was 2.02 µM.

Q: And the GI50 (RPMI-8226 leukemia)?
A: Its GI50 is 1.25 µM.

Q: What about the TGI (RPMI-8226 leukemia) of the same molecule?
A: Its TGI is 10.4 µM.

Q: What about the GI50 (RXF 393 renal) of the same molecule?
A: Its GI50 is under 0.0122 µM.

Q: What about the TGI (RXF 393 renal) of the same molecule?
A: Its TGI is 1.49 µM.

Q: And the GI50 (SF-268 CNS)?
A: The GI50 was under 0.01 µM.

Q: And the TGI (SF-268 CNS)?
A: Its TGI is 1.55 µM.

Q: And the GI50 (SF-539 CNS)?
A: Its GI50 is 0.0176 µM.

Q: What about the TGI (SF-539 CNS) of the same molecule?
A: The TGI was 0.296 µM.

Q: And the GI50 (SK-MEL-2 melanoma)?
A: The GI50 was 0.0398 µM.

Q: What about the TGI (SK-MEL-2 melanoma) of the same molecule?
A: The TGI was 5.36 µM.

Q: What about the GI50 (SK-MEL-28 melanoma) of the same molecule?
A: Its GI50 is under 0.01 µM.

Q: And the TGI (SK-MEL-28 melanoma)?
A: Its TGI is 0.681 µM.

Q: And the GI50 (SK-MEL-5 melanoma)?
A: Its GI50 is under 0.015 µM.

Q: And the TGI (SK-MEL-5 melanoma)?
A: The TGI was 0.563 µM.

Q: What about the GI50 (SK-OV-3 ovarian) of the same molecule?
A: The GI50 was 0.0367 µM.

Q: And the TGI (SK-OV-3 ovarian)?
A: Its TGI is 1.95 µM.

Q: What about the GI50 (SN12C renal) of the same molecule?
A: The GI50 was 0.0435 µM.

Q: What about the TGI (SN12C renal) of the same molecule?
A: The TGI was 1.98 µM.

Q: And the GI50 (SNB-19 CNS)?
A: Its GI50 is 0.0245 µM.

Q: What about the TGI (SNB-19 CNS) of the same molecule?
A: The TGI was 1.94 µM.

Q: What about the GI50 (SNB-75 CNS) of the same molecule?
A: The GI50 was 0.0197 µM.

Q: And the TGI (SNB-75 CNS)?
A: Its TGI is 1.47 µM.

Q: What about the GI50 (SR leukemia) of the same molecule?
A: Its GI50 is 0.0173 µM.

Q: And the TGI (SR leukemia)?
A: The TGI was 1.79 µM.

Q: What about the GI50 (SW-620 colon) of the same molecule?
A: The GI50 was under 0.0119 µM.

Q: What about the TGI (SW-620 colon) of the same molecule?
A: Its TGI is 1.83 µM.

Q: What about the GI50 (T-47D breast) of the same molecule?
A: The GI50 was 0.0199 µM.

Q: What about the TGI (T-47D breast) of the same molecule?
A: Its TGI is 2.05 µM.

Q: What about the GI50 (TK-10 renal) of the same molecule?
A: The GI50 was 0.0453 µM.

Q: What about the TGI (TK-10 renal) of the same molecule?
A: The TGI was 1.97 µM.

Q: And the GI50 (U251 CNS)?
A: Its GI50 is under 0.01 µM.

Q: And the TGI (U251 CNS)?
A: The TGI was 1.23 µM.

Q: What about the GI50 (UACC-257 melanoma) of the same molecule?
A: The GI50 was under 0.0212 µM.

Q: What about the TGI (UACC-257 melanoma) of the same molecule?
A: Its TGI is 0.419 µM.

Q: And the GI50 (UACC-62 melanoma)?
A: Its GI50 is under 0.01 µM.

Q: And the TGI (UACC-62 melanoma)?
A: The TGI was 2.33 µM.

Q: And the GI50 (UO-31 renal)?
A: Its GI50 is 0.0398 µM.

Q: What about the TGI (UO-31 renal) of the same molecule?
A: Its TGI is 1.64 µM.
